System: HSP 72/73
Test: Heat-shock induction of HSP 72/73 stress proteins in primary human keratinocytes (immunofluorescence)
Type: cell-based
Procedure: This was ascertained by spreading primary human keratinocytes on microscopic slides and cultivating them over a period of 3 days at 37° C. in KGM 2 medium (Cell Systems). The human keratinocytes were incubated to a confluence of approximately 60% and part of the culture was then treated with 1% ectoin based on the supernatant of the culture medium. The untreated portion of the culture served as control. Following treatment, the human keratinocytes were incubated for a further 16 hours at 37° C. The cultures were then subjected to heat shock by raising the temperature quickly from 37° C. to 44° C. The experiments were carried out by the method proposed by Holland et al in J. Invest Dermatol. (1993), 101: 196-199. Following this heat-shock treatment, incubation was carried out at 37° C. for a further 2 hours. The cells were then fixed. Fixing was carried out in 3 stages:
fixing solution A (1% CH3COOH/40% ethanol in deionized water v/v, 4° C.), 5 min,
fixing solution B (96% ethanol in deionized water v/v, 4° C.), 5 min,
fixing solution A, 5 min.
The stress proteins produced were stained by immunofluorescence, which process involved the following steps:
blockage of non-specific bonding sites with a blocking agent (10% BSA in phosphate buffer): 45 min, 37° C.,
incubation with the primary antibody anti HSP 72/73 (1:200 dilution in phosphate buffer): 45 min, 37° C.,
incubation with the FITC-conjugated secondary antibody goat anti mouse (1:200 dilution in phosphate buffer): 45 min, 37° C.,
covering of the specimens with fluorescent covering medium and slide cover glasses.
The stess proteins were determined quantitatively as HSP 72/73 under a microscope (BX40, filter: WB, burner: U-RFL-T, Olympus).

**Q.** For CC1=N[C@H](C(=O)O)CCN1 [ectoin, (S)-1,4,5,6-tetrahydro-2-methyl-4-pyrimidinecarboxylic acid], which “protection of human skin cells against stress factors” value (in vitro, ectoin-treated versus untreated skin cells) is on record?
**A.** significantly better

**Q.** What about the “induction of HSP 72/73 stress proteins” value (primary human keratinocytes, 1% ectoin pretreatment 16 hours, heat shock 37° C. to 44° C., compared with untreated cultures) of the same molecule?
**A.** significantly faster

**Q.** What about the “period until HSP 72/73 concentration maximum” value (primary human keratinocytes, 1% ectoin pretreatment, heat shock 44° C., untreated cells 60 minutes) of the same molecule?
**A.** 30 min

Source: patent US20040043940A1, “Use of ectoin or ectoin derivatives for protecting stress proteins in the skin” (priority 2000, published 2004)
